# Columns and labels:
# Assay type in all cases: functional
# Malme-3M = test: Growth inhibition of human MALME-3M cells; settings: for TGI: read-out: pTGI (converted)
# MDA-MB-435 = test: Growth inhibition of human MDA-MB-435 cells; settings: for CC50: read-out: pLC50 (the source's name) (converted); for TGI: read-out: pTGI (converted)
# SK-MEL-2 = test: Growth inhibition of human SK-MEL-2 cells; settings: for TGI: read-out: pTGI (converted)
# SK-MEL-5 = test: Growth inhibition of human SK-MEL-5 cells; settings: for CC50: read-out: pLC50 (the source's name) (converted); for TGI: read-out: pTGI (converted)
# UACC-62 = test: Growth inhibition of human UACC62 cells; settings: for CC50: read-out: pLC50 (the source's name) (converted); for TGI: read-out: pTGI (converted)
# OVCAR-4 = test: Growth inhibition of human OVCAR4 cells; settings: for CC50: read-out: pLC50 (the source's name) (converted); for TGI: read-out: pTGI (converted)
# OVCAR-8 = test: Growth inhibition of human OVCAR8 cells; settings: for TGI: read-out: pTGI (converted)
# UO-31 = test: Growth inhibition of human UO31 cells; settings: for TGI: read-out: pTGI (converted)
# PC-3 = test: Growth inhibition of human PC3 cells; settings: for TGI: read-out: pTGI (converted)
# DU-145 = test: Growth inhibition of human DU145 cells; settings: for TGI: read-out: pTGI (converted)
# [1] = Growth inhibition of human NCI60 cells
# RPMI-8226 = test: Growth inhibition of human RPMI8226 cells; settings: for TGI: read-out: pTGI (converted)
# EKVX = test: Growth inhibition of human EKVX cells; settings: for TGI: read-out: pTGI (converted)
# HOP-62 = test: Growth inhibition of human HOP62 cells; settings: for TGI: read-out: pTGI (converted)
# COLO 205 = test: Growth inhibition of human COLO205 cells; settings: for TGI: read-out: pTGI (converted)
# HT-29 = test: Growth inhibition of human HT-29 cells; settings: for TGI: read-out: pTGI (converted)
# SF-268 = test: Growth inhibition of human SF268 cells; settings: for TGI: read-out: pTGI (converted)
smiles,measurement,setting,value
CC(C)=CCC/C(C)=C/Cc1cc(/C=C/c2cc(O)cc(O)c2)ccc1O [SCHWEINFURTHIN I],GI50,Malme-3M,11.7 µM
same,LC50,Malme-3M,63.1 µM
same,TGI,Malme-3M,26.9 µM
same,GI50,MDA-MB-435,7.24 µM
same,CC50,MDA-MB-435,53.7 µM
same,TGI,MDA-MB-435,21.9 µM
same,GI50,SK-MEL-2,11.5 µM
same,LC50,SK-MEL-2,56.2 µM
same,TGI,SK-MEL-2,25.7 µM
same,GI50,SK-MEL-5,4.68 µM
same,CC50,SK-MEL-5,43.7 µM
same,TGI,SK-MEL-5,17.4 µM
same,GI50,UACC-62,10.7 µM
same,CC50,UACC-62,51.3 µM
same,TGI,UACC-62,23.4 µM
same,GI50,OVCAR-4,10 µM
same,CC50,OVCAR-4,50.1 µM
same,TGI,OVCAR-4,22.4 µM
same,GI50,OVCAR-8,13.8 µM
same,LC50,OVCAR-8,70.8 µM
same,TGI,OVCAR-8,30.9 µM
same,GI50,UO-31,6.76 µM
same,LC50 (concentration killing 50% of cells),UO-31,47.9 µM
same,TGI,UO-31,20.9 µM
same,GI50,PC-3,6.61 µM
same,LC50,PC-3,49 µM
same,TGI,PC-3,20.4 µM
same,GI50,DU-145,12.9 µM
same,LC50,DU-145,51.3 µM
same,TGI,DU-145,25.7 µM
same,GI50,[1],10 µM
same,GI50,RPMI-8226,3.98 µM
same,LC50,RPMI-8226,91.2 µM
same,TGI,RPMI-8226,19.1 µM
same,GI50,EKVX,10.5 µM
same,LC50,EKVX,50.1 µM
same,TGI,EKVX,22.9 µM
same,GI50,HOP-62,14.5 µM
same,LC50,HOP-62,53.7 µM
same,TGI,HOP-62,27.5 µM
same,GI50,COLO 205,18.2 µM
same,LC50,COLO 205,64.6 µM
same,TGI,COLO 205,34.7 µM
same,GI50,HT-29,12.6 µM
same,LC50,HT-29,69.2 µM
same,TGI,HT-29,29.5 µM
same,GI50,SF-268,8.71 µM
same,LC50,SF-268,51.3 µM
same,TGI,SF-268,21.9 µM
CC(C)=CCC/C(C)=C/CC/C(C)=C/Cc1c(O)cc(/C=C/c2ccc(O)cc2)cc1O [SCHWEINFURTHIN J],GI50,Malme-3M,2.95 µM
same,LC50,Malme-3M,39.8 µM
same,TGI,Malme-3M,8.91 µM
same,GI50,MDA-MB-435,3.09 µM
same,CC50,MDA-MB-435,46.8 µM
same,TGI,MDA-MB-435,10.5 µM
same,GI50,SK-MEL-2,2.75 µM
same,LC50,SK-MEL-2,31.6 µM
same,TGI,SK-MEL-2,8.13 µM
same,GI50,SK-MEL-5,1.7 µM
same,CC50,SK-MEL-5,5.75 µM
same,TGI,SK-MEL-5,3.16 µM
same,GI50,UACC-62,2.24 µM
same,CC50,UACC-62,15.8 µM
same,TGI,UACC-62,5.25 µM
same,GI50,OVCAR-4,3.89 µM
same,CC50,OVCAR-4,39.8 µM
same,TGI,OVCAR-4,14.8 µM
same,GI50,OVCAR-8,3.31 µM
same,LC50,OVCAR-8,43.7 µM
same,TGI,OVCAR-8,11.5 µM
same,GI50,UO-31,1.32 µM
same,LC50 (concentration killing 50% of cells),UO-31,34.7 µM
same,TGI,UO-31,10.2 µM
same,GI50,PC-3,3.02 µM
same,LC50,PC-3,42.7 µM
same,TGI,PC-3,13.5 µM
same,GI50,DU-145,3.72 µM
same,LC50,DU-145,35.5 µM
same,TGI,DU-145,12.9 µM
same,GI50,[1],2.8 µM
same,GI50,RPMI-8226,3.16 µM
same,LC50,RPMI-8226,> 100 µM
same,TGI,RPMI-8226,14.8 µM
same,GI50,EKVX,4.27 µM
same,LC50,EKVX,46.8 µM
same,TGI,EKVX,16.6 µM
same,GI50,HOP-62,2.04 µM
same,LC50,HOP-62,7.41 µM
same,TGI,HOP-62,3.89 µM
same,GI50,COLO 205,6.46 µM
same,LC50,COLO 205,44.7 µM
same,TGI,COLO 205,18.6 µM
same,GI50,HT-29,3.98 µM
same,LC50,HT-29,49 µM
same,TGI,HT-29,15.8 µM
same,GI50,SF-268,2.63 µM
same,LC50,SF-268,38 µM
same,TGI,SF-268,11.5 µM

# From ChEMBL document CHEMBL1154825, “Schweinfurthins I and J from Macaranga schweinfurthii” (2010)
